Key:
[1] = pharmacokinetics in cynomolgus monkey; format: in vivo; details: male cynomolgus monkey
Protocol: In Vivo Intravenous PK Study in Non-human Primates. The IV PK study in non-human primates was carried out at Covance research facility in Greenfield, Indiana. The research facility is accredited by AAALAC (Association for Assessment and Accreditation of Laboratory Animal Care). The male Cynomolgus monkeys were approximately 4.5 years of age and weighed 4.2 to 5.0 kg. 1 was administered […]
75% polyethylene glycol (PEG300) as described in the earlier section. Doses were administered once by intravenous injection via the saphenous vein at a dose of 0.3 mg/kg with a dosing volume of 0.1 ml/kg.
Clinical observations and food consumption determinations were performed on all animals. Blood samples for PK analysis were collected from all animals via the femoral vein approximately 0.083, 0.25, […]
In Vivo Oral PK Study in Non-human Primates. The PO PK study in non-human primates was conducted at a Novartis facility using Non-naïve male Cynomolgus monkeys weighing 3.8 to 4.0 kg. The monkeys were fasted overnight and fed 2 hours post-dose. 1 was formulated in a suspension of 0.5% […]
gavaged with 5 mL/kg of the suspension for a total dose of 10 mg/kg. The gavage tubing was flushed with 5 mL of water to ensure the gavage tubing was cleared of the formulation. Blood samples for PK analysis were collected from all animals via the saphenous veins approximately 0.25, 0.5, 1, 2, 4, 7, 24, 48, and 72 hours post-dose.

[2] = target: T1, h AdT (Homo sapiens, UniProt Q99808); test: receptor profile (Table S4); format: binding
T1 sequence (Q99808 2-456 limits assumed): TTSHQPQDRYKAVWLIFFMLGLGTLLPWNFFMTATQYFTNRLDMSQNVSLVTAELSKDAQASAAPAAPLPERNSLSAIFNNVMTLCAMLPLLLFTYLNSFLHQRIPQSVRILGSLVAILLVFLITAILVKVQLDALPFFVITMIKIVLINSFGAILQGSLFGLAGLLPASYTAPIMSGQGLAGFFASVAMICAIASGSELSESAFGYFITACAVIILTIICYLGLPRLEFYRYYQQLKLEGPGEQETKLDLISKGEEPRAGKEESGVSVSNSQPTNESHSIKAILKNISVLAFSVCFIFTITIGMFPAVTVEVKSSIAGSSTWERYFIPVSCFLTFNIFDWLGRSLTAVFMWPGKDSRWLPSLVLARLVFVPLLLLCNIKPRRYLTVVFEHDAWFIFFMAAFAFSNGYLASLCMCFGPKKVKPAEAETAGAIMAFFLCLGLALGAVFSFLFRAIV

[3] = target: hr 5-HT2A antag (Homo sapiens, UniProt P28223); test: receptor profile (Table S4); format: biochemical
Chain of hr 5-HT2A antag (P28223 whole entry): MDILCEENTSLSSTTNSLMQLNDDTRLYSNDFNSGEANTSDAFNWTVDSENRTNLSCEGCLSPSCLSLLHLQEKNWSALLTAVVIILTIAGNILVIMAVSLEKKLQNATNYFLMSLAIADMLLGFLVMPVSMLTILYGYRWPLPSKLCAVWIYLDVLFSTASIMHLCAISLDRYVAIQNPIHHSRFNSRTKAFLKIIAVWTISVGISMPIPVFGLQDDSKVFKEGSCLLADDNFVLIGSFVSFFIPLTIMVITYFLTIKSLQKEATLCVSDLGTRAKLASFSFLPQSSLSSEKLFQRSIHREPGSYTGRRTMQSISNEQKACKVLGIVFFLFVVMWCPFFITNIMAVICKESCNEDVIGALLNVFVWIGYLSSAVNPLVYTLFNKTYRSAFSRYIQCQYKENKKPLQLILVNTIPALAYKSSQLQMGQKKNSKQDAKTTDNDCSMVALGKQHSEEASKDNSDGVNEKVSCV

[4] = target: hr PXR ag (Homo sapiens, UniProt O75469); test: receptor profile (Table S4); details: hr PXR ag
Chain of hr PXR ag (O75469 whole entry): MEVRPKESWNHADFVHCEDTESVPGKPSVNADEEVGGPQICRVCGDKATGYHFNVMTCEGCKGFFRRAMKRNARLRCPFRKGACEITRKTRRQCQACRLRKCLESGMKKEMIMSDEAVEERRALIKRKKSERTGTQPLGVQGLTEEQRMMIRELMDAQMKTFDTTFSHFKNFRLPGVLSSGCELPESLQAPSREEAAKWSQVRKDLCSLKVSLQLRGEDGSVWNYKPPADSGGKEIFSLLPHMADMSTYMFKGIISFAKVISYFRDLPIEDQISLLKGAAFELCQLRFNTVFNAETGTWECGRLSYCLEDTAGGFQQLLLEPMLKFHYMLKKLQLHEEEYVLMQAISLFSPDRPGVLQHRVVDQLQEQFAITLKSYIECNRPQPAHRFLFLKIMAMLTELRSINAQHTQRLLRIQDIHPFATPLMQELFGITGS

[5] = target: PXR (Homo sapiens, UniProt O75469); test: receptor profile (Table S4); details: human
Chain of PXR (O75469 whole entry): as above

[6] = in vivo; details: male, dog, plasma
Protocol: In Vivo PK Studies in Mice.
The solution was filtered using a 0.45 m syringe filter before dosing. Two male Balb/c mice were administered 1 intravenously via the lateral tail
vein at 5 mg/kg with a dose volume of 2.0 mL/kg. 1 was also formulated in a suspension of 0.5%
methylcellulose with 0.5% Tween 80 (0.5% MC/0.5% Tw80) in water at 2.5 mg/mL. A group of mice
(n=3) were administered 1 orally via gavage at 20 mg/kg with a dose volume of 8.0 mL/kg.
The mouse blood samples were centrifuged to separate plasma and the plasma samples were frozen at -
In Vivo PK Studies in Rats.
Two male Wistar rats were administered
1 intravenously via the lateral tail vein at 3 mg/kg with a dose volume of 1.0 mL/kg. 1 was also formulated
in a suspension of 0.5% methylcellulose with 0.5% Tween 80 (0.5% MC/0.5% Tw80) in water at 2.0
mg/mL. The second group of rats (n=3) were administered 1 orally via gavage at 10 mg/kg in suspension
with a dose volume of 5.0 mL/kg. Six blood samples of 100 μL each were collected serially from each
animal via the saphenous vein up to 24 hours after dosing. The rat blood samples were centrifuged to
separate plasma and the plasma samples were frozen at -20°C until analysis.
In Vivo PK Studies in Dogs.
The solution was filtered using a 0.45 m syringe filter before dosing. Three male Beagle dogs were administered 1 intravenously via saphenous
vein at 0.3 mg/kg with a dose volume of 0.1 mL/kg. 1 was also formulated in a suspension of 0.5%
methylcellulose with 0.5% Tween 80 (0.5%MC/0.5% Tween 80) in water at 1.0 mg/mL. The second
group of male dogs (n=2) were administered 1- orally via gavage at 1.0 mg/kg with a dose volume of 1.0
mL/kg. Seven blood samples of 250 µL each were collected serially from each animal via the jugular vein
The dog blood samples were centrifuged to separate plasma and the plasma
samples were frozen at -20 °C until analysis.

[7] = system: L. donovani; test: murine model of visceral leishmaniasis, liver parasite burden by qPCR; format: in vivo; details: mice infected with L. donovani; 1 mg/kg b.i.d. PO, 8 days
From the text: Formulation of study drugs for in vivo efficacy experiments. LXE408 administered to mice during efficacy experiments was formulated as a suspension in distilled water containing 0.5% methylcellulose and 0.5% Tween-80 (mouse model of visceral leishmaniasis) or hydroxypropylcellulose and Tween-80 (mouse models of cutaneous leishmaniasis). Miltefosine was formulated as a solution in distilled water containing 0.5% methylcellulose and 0.5% Tween-80.
Mouse model of visceral leishmaniasis. Female BALB/c mice (6-8 weeks old) were infected by tail vein injection with 4x 107 L. donovani MHOM/ET/67/HU3 splenic amastigotes. Seven days after infection, animals were orally dosed for 8 days with vehicle (0.5% MC/0.5% Tween-80 in distilled water), miltefosine (12 mg/kg once-daily), or LXE408 (twice-daily). At the end of treatment, liver samples were collected and L. donovani parasite burdens were quantified by qPCR as follows. L. donovani genomic DNA was extracted from drug-treated mice livers using the DNeasy Blood and Tissue Kit (Qiagen). Two types of DNA were quantified in parallel using the TaqMan assays for L. donovani major surface

[8] = target: T2, hr GR antag (Homo sapiens, UniProt P04150); test: receptor profile (Table S4); format: biochemical
T2 sequence (P04150 1-777): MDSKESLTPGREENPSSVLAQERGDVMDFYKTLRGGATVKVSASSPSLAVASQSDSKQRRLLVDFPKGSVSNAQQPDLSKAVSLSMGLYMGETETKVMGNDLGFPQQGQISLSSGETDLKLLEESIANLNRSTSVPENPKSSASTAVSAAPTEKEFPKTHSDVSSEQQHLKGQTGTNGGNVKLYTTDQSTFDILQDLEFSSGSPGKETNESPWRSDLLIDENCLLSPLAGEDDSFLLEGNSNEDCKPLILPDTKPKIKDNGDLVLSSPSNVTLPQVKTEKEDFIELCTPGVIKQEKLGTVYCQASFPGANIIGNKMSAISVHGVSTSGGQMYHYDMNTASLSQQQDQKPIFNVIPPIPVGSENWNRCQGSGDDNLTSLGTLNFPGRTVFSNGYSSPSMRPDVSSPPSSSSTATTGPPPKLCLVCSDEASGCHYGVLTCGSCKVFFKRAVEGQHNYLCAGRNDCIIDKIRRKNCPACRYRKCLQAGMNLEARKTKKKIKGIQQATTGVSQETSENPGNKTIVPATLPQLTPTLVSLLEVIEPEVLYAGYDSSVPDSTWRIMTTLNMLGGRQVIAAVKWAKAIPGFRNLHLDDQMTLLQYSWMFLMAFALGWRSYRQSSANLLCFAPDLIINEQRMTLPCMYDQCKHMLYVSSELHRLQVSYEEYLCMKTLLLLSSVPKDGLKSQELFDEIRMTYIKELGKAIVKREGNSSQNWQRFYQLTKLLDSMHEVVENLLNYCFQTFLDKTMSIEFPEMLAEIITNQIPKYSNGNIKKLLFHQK

[9] = target: T3, hr Alpha2B (Homo sapiens, UniProt P18089); test: receptor profile (Table S4); format: binding
T3 sequence (P18089 1-450): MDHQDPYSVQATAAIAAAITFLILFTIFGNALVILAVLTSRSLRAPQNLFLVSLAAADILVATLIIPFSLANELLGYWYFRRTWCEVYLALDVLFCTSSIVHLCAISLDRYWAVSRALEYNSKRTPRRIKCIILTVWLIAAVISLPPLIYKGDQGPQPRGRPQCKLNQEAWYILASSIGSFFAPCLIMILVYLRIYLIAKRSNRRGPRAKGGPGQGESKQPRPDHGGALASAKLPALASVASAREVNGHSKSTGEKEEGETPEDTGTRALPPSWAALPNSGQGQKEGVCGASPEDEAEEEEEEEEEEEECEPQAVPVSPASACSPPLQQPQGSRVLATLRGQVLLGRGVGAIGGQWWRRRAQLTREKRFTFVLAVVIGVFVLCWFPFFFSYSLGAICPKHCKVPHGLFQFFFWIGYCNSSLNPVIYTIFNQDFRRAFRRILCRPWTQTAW

Cc1nc(C)c(C(=O)Nc2ccc(F)c(-c3nc4ncc(-c5ncccc5C)cn4n3)c2)o1 [compound 1, N-(4-Fluoro-3-(6-(3-methylpyridin-2-yl)-[1,2,4]triazolo[1,5-a]pyrimidin-2-yl)phenyl)-2,4-dimethyloxazole-5-carboxamide]
MRT ([1]; in vivo, 0.3 mg/kg IV): 9.7 h
bioavailability ([1]; in vivo, 0.3 mg/kg IV and 10 mg/kg PO): 27%
clearance ([1]; in vivo, 0.3 mg/kg IV, fumarate salt): 0.9 mL/min/kg
half-life ([1]; in vivo, 0.3 mg/kg IV, read-out: T1/2 IV (converted)): 9.7 h
Vd ([1]; in vivo, 0.3 mg/kg IV, read-out: Vss): 0.5 L/kg
DN AUC PO ([1]; 10 mg/kg PO, dose-normalized): 12 µM·h
DN Cmax PO ([1]; 10 mg/kg PO, dose-normalized): 1000 nM
EC50/IC50 ([2]; h AdT): > 30 µM
inhibition at 10 µM ([2]; read-out: % inh/act @ 10 µM): 28%
inhibition at 30 µM ([2]; read-out: % inh/act @ 30 µM): 42%
EC50/IC50 ([3]; hr 5-HT2A antag): > 10 µM
inhibition at 10 µM ([3]; read-out: % inh/act @ 10 µM): 34%
EC50/IC50 [4]: > 30 µM
inhibition at 10 µM [5]: 0%
bioavailability ([6]; Beagle, po, 1 mg/kg): 44%
MRT ([6]; beagle, iv, 0.3 mg/kg): 3.3 h
Vd ([6]; beagle, iv, 0.3 mg/kg): 2.1 L/kg
clearance ([6]; beagle, iv, 0.3 mg/kg): 11.6 mL/min/kg
half-life ([6]; beagle, iv, 0.3 mg/kg): 3.8 h
reduction of parasite burden in the liver [7]: 95%
EC50/IC50 ([8]; hr GR antag): > 30 µM
inhibition at 10 µM ([8]; read-out: % inh/act @ 10 µM): 0%
inhibition at 30 µM ([8]; read-out: % inh/act @ 30 µM): 10%
EC50/IC50 ([9]; hr Alpha2B): > 30 µM
inhibition at 10 µM ([9]; read-out: % inh/act @ 10 µM): 13%
inhibition at 30 µM ([9]; read-out: % inh/act @ 30 µM): 16%

From paper PMC7549094 (Journal of Medicinal Chemistry, 2020)
